# Test system: 898857-211-R-J1-PDC complex spheroids, growth % test/control
# Test: Anticancer human tumor 898857-211-R-J1-PDC patient-derived melanoma cell line growth inhibition [RAS]
# Conditions: for IC50: curve of first compound; for viability, T/C: stronger effect = lower value
# In short: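 Agents were tested in combination matrices in half-log decrements from a top concentration at or near clinical Cmax (10 microM if undetermined). Targets were multi-cell spheroids of tumour lines plus HUVEC and MSC stromal cells.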
# [1] = second compound 0.000949 µM, first compound 0.0316 µM
# [2] = second compound 0.000949 µM, first compound 0.1 µM
# [3] = second compound 0.000949 µM, first compound 0.316 µM
# [4] = second compound 0.000949 µM, first compound 1 µM
# [5] = second compound 0.000949 µM, first compound 3.16 µM
# [6] = second compound 0.000949 µM, first compound 10 µM
# [7] = second compound 0.003 µM, first compound 0.0316 µM
# [8] = second compound 0.003 µM, first compound 0.1 µM
# [9] = second compound 0.003 µM, first compound 0.316 µM
# [10] = second compound 0.003 µM, first compound 1 µM
# [11] = second compound 0.003 µM, first compound 3.16 µM
# [12] = second compound 0.003 µM, first compound 10 µM
# [13] = second compound 0.00949 µM, first compound 0.0316 µM
# [14] = second compound 0.00949 µM, first compound 0.1 µM
# [15] = second compound 0.00949 µM, first compound 0.316 µM
# [16] = second compound 0.00949 µM, first compound 1 µM
# [17] = second compound 0.00949 µM, first compound 3.16 µM
# [18] = second compound 0.00949 µM, first compound 10 µM
# [19] = second compound 0.03 µM, first compound 0.0316 µM
# [20] = second compound 0.03 µM, first compound 0.1 µM
# [21] = second compound 0.03 µM, first compound 0.316 µM
# [22] = second compound 0.03 µM, first compound 1 µM
# [23] = second compound 0.03 µM, first compound 3.16 µM
# [24] = second compound 0.03 µM, first compound 10 µM
# [25] = second compound 0.0949 µM, first compound 0.0316 µM
# [26] = second compound 0.0949 µM, first compound 0.1 µM
# [27] = second compound 0.0949 µM, first compound 0.316 µM
# [28] = second compound 0.0949 µM, first compound 1 µM
# [29] = second compound 0.0949 µM, first compound 3.16 µM
# [30] = second compound 0.0949 µM, first compound 10 µM
# [31] = second compound 0.3 µM, first compound 0.0316 µM
# [32] = second compound 0.3 µM, first compound 0.1 µM
# [33] = second compound 0.3 µM, first compound 0.316 µM
# [34] = second compound 0.3 µM, first compound 1 µM
# [35] = second compound 0.3 µM, first compound 3.16 µM
# [36] = second compound 0.3 µM, first compound 10 µM
# 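Further: spheroids exposed to compound for seven days before readout.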
# 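Wherever viability, T/C is given: 100% = DMSO vehicle control wells.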
smiles,measurement,setting,value
CCC(CC)c1cc(NC2CCC(N)C2)n2nccc2n1 (stereo unspecified) + CCn1c(-c2cccnc2C(C)OC)c2c3cc(ccc31)N1CCOC(CC(NC(=O)C(C(C)C)N(C)C(=O)C3(F)CCN(C(=O)C#CC(C)(C)N(C)C)CC3)C(=O)N3CCCC(N3)C(=O)OCC(C)(C)C2)C1,IC50,second compound 0.000949 µM,1.12 µM
same,IC50,second compound 0.003 µM,1.09 µM
same,IC50,second compound 0.00949 µM,0.968 µM
same,IC50,second compound 0.03 µM,1.04 µM
same,IC50,second compound 0.0949 µM,0.748 µM
same,IC50,second compound 0.3 µM,0.415 µM
same,"viability, T/C",[1],124%
same,"viability, T/C",[2],105%
same,"viability, T/C",[3],101%
same,"viability, T/C",[4],57.4%
same,"viability, T/C",[5],1.07%
same,"viability, T/C",[6],0.23%
same,"viability, T/C",[7],109%
same,"viability, T/C",[8],106%
same,"viability, T/C",[9],103%
same,"viability, T/C",[10],54%
same,"viability, T/C",[11],0.85%
same,"viability, T/C",[12],0.65%
same,"viability, T/C",[13],103%
same,"viability, T/C",[14],100%
same,"viability, T/C",[15],101%
same,"viability, T/C",[16],48.5%
same,"viability, T/C",[17],1.54%
same,"viability, T/C",[18],0.27%
same,"viability, T/C",[19],108%
same,"viability, T/C",[20],109%
same,"viability, T/C",[21],102%
same,"viability, T/C",[22],51.9%
same,"viability, T/C",[23],0.7%
same,"viability, T/C",[24],0.63%
same,"viability, T/C",[25],94.9%
same,"viability, T/C",[26],105%
same,"viability, T/C",[27],80.4%
same,"viability, T/C",[28],40.9%
same,"viability, T/C",[29],0.82%
same,"viability, T/C",[30],0.45%
same,"viability, T/C",[31],83.5%
same,"viability, T/C",[32],72.2%
same,"viability, T/C",[33],59.9%
same,"viability, T/C",[34],22.7%
same,"viability, T/C",[35],1.27%
same,"viability, T/C",[36],0.27%
Cc1nc(N2CCC3(CC2)COC(C)C3N)c(CO)nc1Sc1ccnc(N)c1Cl (stereo unspecified) + CCn1c(-c2cccnc2C(C)OC)c2c3cc(ccc31)N1CCOC(CC(NC(=O)C(C(C)C)N(C)C(=O)C3(F)CCN(C(=O)C#CC(C)(C)N(C)C)CC3)C(=O)N3CCCC(N3)C(=O)OCC(C)(C)C2)C1,IC50,second compound 0.000949 µM,> 10 µM
same,IC50,second compound 0.003 µM,> 10 µM
same,IC50,second compound 0.00949 µM,> 10 µM
same,IC50,second compound 0.03 µM,> 10 µM
same,IC50,second compound 0.0949 µM,> 10 µM
same,IC50,second compound 0.3 µM,> 10 µM
same,"viability, T/C",[1],94.5%
same,"viability, T/C",[2],94.9%
same,"viability, T/C",[3],103%
same,"viability, T/C",[4],98.8%
same,"viability, T/C",[5],93.1%
same,"viability, T/C",[6],90.6%
same,"viability, T/C",[7],98.6%
same,"viability, T/C",[8],98.5%
same,"viability, T/C",[9],97.6%
same,"viability, T/C",[10],95.7%
same,"viability, T/C",[11],113%
same,"viability, T/C",[12],93.4%
same,"viability, T/C",[13],99.7%
same,"viability, T/C",[14],104%
same,"viability, T/C",[15],107%
same,"viability, T/C",[16],96%
same,"viability, T/C",[17],92.3%
same,"viability, T/C",[18],85.1%
same,"viability, T/C",[19],93.2%
same,"viability, T/C",[20],90.2%
same,"viability, T/C",[21],96.8%
same,"viability, T/C",[22],109%
same,"viability, T/C",[23],89.5%
same,"viability, T/C",[24],92%
same,"viability, T/C",[25],90.6%
same,"viability, T/C",[26],100%
same,"viability, T/C",[27],87.7%
same,"viability, T/C",[28],96.3%
same,"viability, T/C",[29],92%
same,"viability, T/C",[30],88.6%
same,"viability, T/C",[31],85.2%
same,"viability, T/C",[32],82.7%
same,"viability, T/C",[33],77.4%
same,"viability, T/C",[34],76.9%
same,"viability, T/C",[35],74.2%
same,"viability, T/C",[36],69.5%
NC1c2ccccc2OC12CCN(c1cnc3c(N4CCCc5ncccc54)n[nH]c3n1)CC2 (stereo unspecified) + CCn1c(-c2cccnc2C(C)OC)c2c3cc(ccc31)N1CCOC(CC(NC(=O)C(C(C)C)N(C)C(=O)C3(F)CCN(C(=O)C#CC(C)(C)N(C)C)CC3)C(=O)N3CCCC(N3)C(=O)OCC(C)(C)C2)C1,IC50,second compound 0.000949 µM,> 10 µM
same,IC50,second compound 0.003 µM,> 10 µM
same,IC50,second compound 0.00949 µM,> 10 µM
same,IC50,second compound 0.03 µM,> 10 µM
same,IC50,second compound 0.0949 µM,> 10 µM
same,IC50,second compound 0.3 µM,7.88 µM
same,"viability, T/C",[1],91.6%
same,"viability, T/C",[2],94.3%
same,"viability, T/C",[3],99.9%
same,"viability, T/C",[4],90.7%
same,"viability, T/C",[5],101%
same,"viability, T/C",[6],70.9%
same,"viability, T/C",[7],95%
same,"viability, T/C",[8],88.7%
same,"viability, T/C",[9],90.4%
same,"viability, T/C",[10],90.9%
same,"viability, T/C",[11],97.9%
same,"viability, T/C",[12],67.8%
same,"viability, T/C",[13],99%
same,"viability, T/C",[14],106%
same,"viability, T/C",[15],101%
same,"viability, T/C",[16],87.2%
same,"viability, T/C",[17],89%
same,"viability, T/C",[18],74.3%
same,"viability, T/C",[19],103%
same,"viability, T/C",[20],100%
same,"viability, T/C",[21],101%
same,"viability, T/C",[22],96.6%
same,"viability, T/C",[23],95.1%
same,"viability, T/C",[24],63.8%
same,"viability, T/C",[25],82.9%
same,"viability, T/C",[26],87.2%
same,"viability, T/C",[27],97.7%
same,"viability, T/C",[28],91.1%
same,"viability, T/C",[29],84.8%
same,"viability, T/C",[30],55.4%
same,"viability, T/C",[31],73.3%
same,"viability, T/C",[32],77.6%
same,"viability, T/C",[33],67.9%
same,"viability, T/C",[34],72.9%
same,"viability, T/C",[35],72.6%
same,"viability, T/C",[36],44.1%

# — PubChem BioAssay AID2060882 (Molecular Pharmacology Branch, DTP, NCI, 2025)
